Literature values, collected in patent US6624294B2, “Regioselective synthesis of 2′-O-modified nucleosides” (ISIS Pharmaceuticals, Inc., priority 1999, dated 2003).

Settings: hydroxylamino function

CON [MeONH2]
pKa: 4.2

CON(C)C [MeONHMe2]
pKa: 3.65

CNOC [MeONHMe]
pKa: 4.75
